Test results: US12187754B2, “LpxC inhibitors and uses thereof” (Blacksmith Medicines, Inc., priority 2021, dated 2025)

What was measured:
E. coli UTI 89 = assay: Mouse urinary tract infection model, E. coli UTI 89; format: in vivo; conditions: for Bladder Terminal Burden / Kidney Terminal Burden / Urine Terminal Burden: mice, 96 h post infection; for bacterial burden in urine relative to vehicle-treated controls / bacterial burden in bladder relative to vehicle-treated controls / bacterial burden in kidney relative to vehicle-treated control / efficacy on bacterial burden in kidney: E. coli UTI 89, mice; for bacterial burden in bladder relative to vehicle-treated controls / bacterial burden in kidney relative to vehicle-treated control: IV administration; for efficacy on bacterial burden in kidney: PO administration
Procedure: (§1) Compound A and its prodrugs as disclosed herein were tested in an in vivo mouse model for Urinary Tract Infection. Briefly, mice were infected with E. coli UTI 89 to cause a UTI infection and were treated with compounds disclosed herein.
(§2) Five days prior to infection, C3H/HeNR female mice were preconditioned with drinking water containing 5% glucose. Mice were rendered unconscious using parenteral anaesthesia (ketamine/medetomidine) then 0.05 mL of a bacterial suspension of E. coli UTI 89 (1.2×10^9 CFU/mL (6.2×10^7 CFU/mouse) was administered transurethrally into the bladder to cause an ascending UTI infection.
IV or PO treatment was started 24 h post infection with 3, 10, 15 mg/kg/dose IV Compound A; 3, 10, 15.30 mg/kg/dose IV Compound 1; 3, and 10 mg/kg/dose IV Compound 2; and 30 mg/kg/dose oral of either Compound 1 or 2 administered every 12 hours for 3 days (six doses total). Ciprofloxacin was given as a control at 10 mg/kg/dose IV every 12 hours. Compound A was formulated in 10% DMSO, 5% Cremophor, 85% SFI; the remaining compounds used a sterile phosphate-buffered saline (PBS) formulation. Each group was comprised of five mice each.
(§3) Urine, bladder, and kidney were harvested at 24 h (pre-treatment group only) and 96 h post infection and quantitatively cultured.

K. pneumoniae BAA-1705 = assay: Mouse urinary tract infection model, K. pneumoniae BAA-1705; format: in vivo; conditions: for Bladder Terminal Burden / Kidney Terminal Burden / Urine Terminal Burden: mice, 96 hours; for bacterial burden in urine relative to vehicle-treated controls and the ciprofloxacin control: except for the 30 mg/kg IV Compound A experiment
Procedure: as §1, §2
[…]; […]; […]; […] for 3 days (six doses total). Ciprofloxacin was given as a control at 10 mg/kg/dose IV every 12 hours. Compound A was formulated in 10% DMSO, 5% Cremophor, 85% SFI; the remaining compounds used a sterile phosphate-buffered saline (PBS) formulation. Each group was comprised of five mice each.
as §3
The experiment was repeated using K. pneumoniae BAA-1705 (MDR; MIC90 strain). Table 5 and FIG. 2 summarize the results, showing the average terminal burden of K. pneumoniae BAA-1705 in urine, bladder, and kidney at the conclusion of the study (96 hours).

Thermal solubility = format: physicochemical; conditions: aqueous buffer, thermodynamic from solid; 100 mM potassium phosphate buffer pH 7.4, 24 h, 25° C.
Procedure: Solubility of the compounds was assessed in 100 mM potassium phosphate buffer at pH 7.4 after 24 hours at room temperature.
Accurately weighed K2HPO4 (2.79 g) and KH2PO4 (0.54 g) were dissolved in 90 mL of Milli-Q water and mixed well. Volume was made upto 200 mL with Milli-Q water and mixed well. The prepared phosphate buffer was stored at 2-8° C. and used within a month.
Approximately 30 mg of test compound was added to approximately 1 mL of the potassium phosphate buffer, pH 7.4. If the visual inspection indicated precipitation, no further compound is added. If the visual inspection indicated a clear solution, further increments of compound were added until the solution was no longer clear.
Test compounds and assay controls (caffeine) were further incubated for 24 h at 25° C. temperature on a thermomixer at a shaking speed of 1200 rpm. After incubation, the samples (200 μL) were transferred to a filtration plate to which a plate was attached at bottom for collecting the filtrate. The plate was centrifuged at 4000 rpm for 2 min and the filtrate was collected in the attached bottom plate. The filtrates were diluted using filtered buffer based on the initial amount of compound added. All samples were analysed by HPLC-UV method against 8 point calibration curve with concentrations ranging from 2.5 μg/mL to 1000 μg/mL.

Kinetic solubility = format: physicochemical
Procedure: Solubility of the compounds was assessed in 10 mM phosphate-buffered saline (PBS) at pH 7 at final concentrations of 20, 40, and 50 mg/mL of test compound.

Pharmacokinetics in rats = format: in vivo, Male Sprague-Dawley (SD) rats; conditions: male, Sprague-Dawley, plasma, intravenous, oral; after 4 h, all routes and doses tested in rat; read-out: plasma concentration of prodrug Compound 1
Procedure: (§4) Stock solutions of test compounds were prepared at 2.5 or 5.0 mg/mL in 10 mM PBS. Male Sprague-Dawley (SD) rats (n=3 per group) or beagle dogs (n=3 per group) were administered test compound by either IV or oral administration. For IV-administered compounds, a three hour infusion was used. For PO-administered compounds, a single bolus dose was used.
(§5) After initiation of IV dosing (or after PO bolus dosing), whole blood samples were collected at 1, 3, 3.5, 4, 6, 8, and 24 hour timepoints. All samples were collected into Plasma K2-EDTA collection tubes and processed to separate plasma from red blood cells.
(§6) Liquid chromatography-tandem mass spectrometry (LC-MS/MS) was used to analyze all plasma samples, with both the test compound and the active agent Compound A being quantified. The lower limit of quantitation (LLOQ) for both rats and dogs was 1 ng/mL.

Pharmacokinetics in dogs = format: in vivo; conditions: beagle, plasma, intravenous, oral; after 6 h, all routes and doses tested in dog; read-out: plasma concentration of prodrug Compound 1
Procedure: as §4, §5, §6

[1] = 10 mg/kg/dose IV every 12 hours for 3 days
[2] = 20, 40, and 50 mg/mL in 10 mM PBS pH 7
[3] = 3 mg/kg/dose IV every 12 hours for 3 days
[4] = 15 mg/kg/dose IV every 12 hours for 3 days
[5] = 30 mg/kg/dose PO every 12 hours for 3 days

Structure (SMILES) | Bladder Terminal Burden (E. coli UTI 89; [1]) | Kidney Terminal Burden (E. coli UTI 89; [1]) | Urine Terminal Burden (E. coli UTI 89; [1]) | solubility at 24 h (Thermal solubility) [µg/mL] | appearance after vortex mixing (Kinetic solubility; [2]) | Bladder Terminal Burden (E. coli UTI 89; [3]) | Kidney Terminal Burden (E. coli UTI 89; [3]) | Urine Terminal Burden (E. coli UTI 89; [3]) | Bladder Terminal Burden (E. coli UTI 89; [5]) | Kidney Terminal Burden (E. coli UTI 89; [5]) | Urine Terminal Burden (E. coli UTI 89; [5]) | bacterial burden in urine relative to vehicle-treated controls (E. coli UTI 89) | bacterial burden in bladder relative to vehicle-treated controls (E. coli UTI 89) | bacterial burden in kidney relative to vehicle-treated control (E. coli UTI 89) | efficacy on bacterial burden in kidney (E. coli UTI 89) | bacterial burden in kidney relative to vehicle-treated controls and the ciprofloxacin control (K. pneumoniae BAA-1705; K. pneumoniae BAA-1705, mice) | bacterial burden in urine relative to vehicle-treated controls and the ciprofloxacin control (K. pneumoniae BAA-1705; K. pneumoniae BAA-1705, mice) | further results
O=C(O)c1cn(C2CC2)c2cc(N3CCNCC3)c(F)cc2c1=O [Ciprofloxacin, reference compound] | 2.85 × 10^5 CFU/mL | 1.88 × 10^2 CFU/mL | 5.07 × 10^2 CFU/mL | – | – | – | – | – | – | – | – | – | – | – | – | – | – | Bladder Terminal Burden (K. pneumoniae BAA-1705; 10 mg/kg/dose IV): 2.27 × 10^1 CFU/mL; Kidney Terminal Burden (K. pneumoniae BAA-1705; 10 mg/kg/dose IV): 1.88 × 10^3 CFU/mL; Urine Terminal Burden (K. pneumoniae BAA-1705; 10 mg/kg/dose IV): 1.78 × 10^2 CFU/mL; Bladder Terminal Burden (K. pneumoniae BAA-1705; 10 mg/kg/dose PO): 4.05 × 10^2 CFU/mL; Kidney Terminal Burden (K. pneumoniae BAA-1705; 10 mg/kg/dose PO): 2.59 × 10^4 CFU/mL; Urine Terminal Burden (K. pneumoniae BAA-1705; 10 mg/kg/dose PO): 9.71 × 10^2 CFU/mL
N#CC1CN(C[C@@H](Cc2nc[nH]c(=O)c2OP(=O)(O)O)c2ccc(C#Cc3ccc(CN4CCOCC4)cc3)cc2)C1 [Compound 1, (S)-4-(3-(3-cyanoazetidin-1-yl)-2-(4-((4-(morpholinomethyl)phenyl)ethynyl)phenyl)propyl)-6-oxo-1,6-dihydropyrimidin-5-yl dihydrogen phosphate] | 5.05 × 10^5 CFU/mL | 5.24 × 10^2 CFU/mL | 9.40 × 10^3 CFU/mL | ≥ 3000 | clear solutions | 2.64 × 10^6 CFU/mL | 4.74 × 10^4 CFU/mL | 2.93 × 10^5 CFU/mL | 1.81 × 10^5 CFU/mL | 4.04 × 10^2 CFU/mL | 8.73 × 10^3 CFU/mL | statistically significant reductions in bacterial burden in urine | reductions in bacterial burden in bladder | statistically significant reductions in bacterial burden in kidney | efficacious | statistically significant reductions in bacterial burden in kidney | statistically significant reductions in bacterial burden in urine | solubility after storage (Kinetic solubility; 20, 40, and 50 mg/mL in 10 mM PBS pH 7, storage at 4° C. for 20 hours): remained soluble; concentration at 4 h (Pharmacokinetics in rats): < 100 ng/mL; concentration at 6 h (Pharmacokinetics in dogs): < 100 ng/mL; Bladder Terminal Burden (E. coli UTI 89; [4]): 9.57 × 10^4 CFU/mL; Kidney Terminal Burden (E. coli UTI 89; [4]): 1.28 × 10^2 CFU/mL; Urine Terminal Burden (E. coli UTI 89; [4]): 3.59 × 10^3 CFU/mL; Bladder Terminal Burden (K. pneumoniae BAA-1705; 11.5 mg/kg/dose IV): BLoD; Kidney Terminal Burden (K. pneumoniae BAA-1705; 11.5 mg/kg/dose IV): 1.72 × 10^1 CFU/mL; Urine Terminal Burden (K. pneumoniae BAA-1705; 11.5 mg/kg/dose IV): 2.15 × 10^1 CFU/mL; Bladder Terminal Burden (K. pneumoniae BAA-1705; 35 mg/kg/dose IV): BLoD; Kidney Terminal Burden (K. pneumoniae BAA-1705; 35 mg/kg/dose IV): BLoD; Urine Terminal Burden (K. pneumoniae BAA-1705; 35 mg/kg/dose IV): BLoD; Bladder Terminal Burden (K. pneumoniae BAA-1705; 69.5 mg/kg/dose IV): 4.58 × 10^0 CFU/mL; Kidney Terminal Burden (K. pneumoniae BAA-1705; 69.5 mg/kg/dose IV): BLoD; Urine Terminal Burden (K. pneumoniae BAA-1705; 69.5 mg/kg/dose IV): BLoD; Bladder Terminal Burden (K. pneumoniae BAA-1705; 104.5 mg/kg/dose PO): BLoD; Kidney Terminal Burden (K. pneumoniae BAA-1705; 104.5 mg/kg/dose PO): BLoD; Urine Terminal Burden (K. pneumoniae BAA-1705; 104.5 mg/kg/dose PO): 2.51 × 10^0 CFU/mL; bacterial loads in kidney (K. pneumoniae BAA-1705; K. pneumoniae BAA-1705, mice, all routes of administration): below the limit of detection
N#CC1CN(C[C@@H](Cc2nc[nH]c(=O)c2OCOP(=O)(O)O)c2ccc(C#Cc3ccc(CN4CCOCC4)cc3)cc2)C1 [Compound 2, (S)-((4-(3-(3-cyanoazetidin-1-yl)-2-(4-((4-(morpholinomethyl)phenyl)ethynyl)phenyl)propyl)-6-oxo-1,6-dihydropyrimidin-5-yl)oxy)methyl dihydrogen phosphate] | 1.17 × 10^6 CFU/mL | 9.67 × 10^2 CFU/mL | 2.73 × 10^4 CFU/mL | ≥ 3000 | milky suspensions | 5.15 × 10^5 CFU/mL | 2.52 × 10^3 CFU/mL | 4.69 × 10^4 CFU/mL | 2.82 × 10^5 CFU/mL | 3.81 × 10^2 CFU/mL | 3.41 × 10^3 CFU/mL | statistically significant reductions in bacterial burden in urine | reductions in bacterial burden in bladder | statistically significant reductions in bacterial burden in kidney | efficacious | statistically significant reductions in bacterial burden in kidney | statistically significant reductions in bacterial burden in urine | appearance after sonication (Kinetic solubility; 20, 40, and 50 mg/mL in 10 mM PBS, sonication in 40° C. water bath for 30 min): no change in appearance; appearance after treatment with 1M HCL (Kinetic solubility; 20, 40, and 50 mg/mL, final pH of 4, 10 seconds of vortexing): Clear solutions; appearance after addition of 1M NaOH (Kinetic solubility; 20, 40, and 50 mg/mL, final pH of 7, 10 seconds of vortexing): clear solutions
